Data published in US4443436A, “C-20-Modified macrolide derivatives of the macrolide antibiotics tylosin, desmycosin, macrocin, and lactenocin” (Eli Lilly and Company, priority 1982, dated 1984).
In brackets after ≈: the same amount, converted by molar mass. Like-named read-outs stand apart in the source and are kept apart here.

Tests used:
[1] = test system: Staphylococcus aureus V41; assay: MIC, standard agar-dilution assay, Staphylococcus aureus V41; assay type: cell-based
[2] = test system: Streptococcus Group D X66; assay: MIC, standard agar-dilution assay, Streptococcus Group D X66; assay type: cell-based
[3] = test system: Mycoplasma synoviae; assay: MIC, broth-dilution microtiter test, Mycoplasma synoviae; assay type: cell-based
From the text: (§1) The MIC's in Table X were obtained using conventional broth-dilution microtiter tests.

[4] = test system: Pasteurella multocida 60A; assay: MIC, broth-dilution microtiter test, Pasteurella multocida 60A; assay type: cell-based; details: Pasteurella multocida 60A, avian isolate, broth-dilution microtiter
From the text: as §1

[5] = test system: Streptococcus bovis 80; assay: MIC, broth-dilution microtiter test, Streptococcus bovis 80; assay type: cell-based; details: Streptococcus bovis 80, broth-dilution microtiter
From the text: as §1

[6] = test system: Staphylococcus aureus X400; assay: MIC, standard agar-dilution assay, Staphylococcus aureus X400; assay type: cell-based; details: Staphylococcus aureus X400, methicillin-resistant strain, agar dilution
[7] = test system: Staphylococcus epidermidis EPI1; assay: MIC, standard agar-dilution assay, Staphylococcus epidermidis EPI1; assay type: cell-based; details: Staphylococcus epidermidis EPI1, agar dilution
[8] = test system: Pasteurella multocida; assay: Oral (gavage) treatment of Pasteurella multocida-infected chicks; assay type: in vivo, one-day-old chicks
Protocol: Many of the C-20 modified derivatives of this invention have also shown in vivo antibacterial activity against infections induced by gram-negative bacteria. Tables XII and XIII summarize the results of tests in which illustrative compounds were evaluated against Pasteurella infection in one-day-old chicks. The compounds were administered parenterally or orally after challenge of the chicks with Pasteurella multocida (0.1 ml of a 10^-4 dilution of a twenty-hour tryptose broth culture of an avian P. multocida given subcutaneously). In these tests, unless indicated otherwise, all non-medicated infected chicks died within 24 hours of Pasteurella challenge. In the tests summarized in Table XII the compounds were administered by subcutaneous injection at a dosage of 30 mg/kg, 1 and 4 hours post-challenge of the chicks with P. multocida. In the test summarized in Table XIII the compounds were administered by gavage at 1 and 5 hours post-challenge of the chicks with P. multocida.

[9] = test system: Staphylococcus aureus; assay: MIC, broth-dilution microtiter test, Staphylococcus aureus; assay type: cell-based; details: broth-dilution microtiter
From the text: as §1

[10] = test system: Mycoplasma hyorhinis; assay: MIC, broth-dilution microtiter test, Mycoplasma hyorhinis; assay type: cell-based
From the text: as §1

[11] = test system: Streptococcus pyogenes C203; assay: MIC, standard agar-dilution assay, Streptococcus pyogenes C203; assay type: cell-based
[12] = test system: Streptococcus Group 9960; assay: MIC, standard agar-dilution assay, Streptococcus Group 9960; assay type: cell-based
[13] = test system: Streptococcus pyogenes C203; assay: In vivo protection of mice experimentally infected with S. pyogenes C203; details: mice, doses given 1 and 4 hours post-infection; for ED50: Streptococcus pyogenes
Protocol: The C-20 modified derivatives of this invention have shown in vivo antimicrobial activity against experimentally-induced infections in laboratory animals. When two doses of test compound were administered to mice experimentally infected with S. pyogenes C203, the activity observed was measured as an ED50 value [effective dose in mg/kg to protect 50% of the test animals: see Warren Wick, et al., J. Bacteriol. 81, 233-235 (1961)].

[14] = test system: Staphylococcus epidermidis EPI2; assay: MIC, standard agar-dilution assay, Staphylococcus epidermidis EPI2; assay type: cell-based; details: Staphylococcus epidermidis EPI2, agar dilution
[15] = test system: Haemophilus influenzae R252; assay: MIC, standard agar-dilution assay, Haemophilus influenzae R252; assay type: cell-based; details: Haemophilus influenzae R252, ampicillin-resistant strain
[16] = test system: Staphylococcus aureus S13E; assay: MIC, standard agar-dilution assay, Staphylococcus aureus S13E; assay type: cell-based
[17] = test system: Mycoplasma gallisepticum; assay: MIC, broth-dilution microtiter test, Mycoplasma gallisepticum; assay type: cell-based; details: Mycoplasma gallisepticum, broth-dilution microtiter
From the text: as §1

[18] = test system: Streptococcus pneumoniae Park I; assay: microbe, parasite or virus in culture; assay type: cell-based
[19] = test system: Haemophilus influenzae Holt; assay: MIC, standard agar-dilution assay, Haemophilus influenzae Holt; assay type: cell-based; details: Haemophilus influenzae Holt, ampicillin-sensitive strain
[20] = test system: Mycoplasma hyopneumoniae; assay: MIC, broth-dilution microtiter test, Mycoplasma hyopneumoniae; assay type: cell-based; details: Mycoplasma hyopneumoniae, broth-dilution microtiter
From the text: as §1

[21] = test system: Staphylococcus aureus X1.1; assay: MIC, standard agar-dilution assay, Staphylococcus aureus X1.1; assay type: cell-based
[22] = test system: Pasteurella multocida 17E; assay: MIC, broth-dilution microtiter test, Pasteurella multocida 17E; assay type: cell-based; details: Pasteurella multocida 17E, bovine isolate, broth-dilution microtiter
From the text: as §1

[23] = test system: Pasteurella hemolytica 22C; assay: MIC, broth-dilution microtiter test, Pasteurella hemolytica 22C; assay type: cell-based; details: Pasteurella hemolytica 22C, broth-dilution microtiter
From the text: as §1

SMILES: CCC1OC(=O)CC(O)C(C)C(OC2OC(C)C(O)C(N(C)C)C2O)C(CCF)CC(C)C(=O)C=CC(C)=CC1COC1OC(C)C(O)C(OC)C1OC (centres unmarked) [Compound 22, 20-DH-DO-20-Fluorodesmycosin]
- MIC ([1]; Staphylococcus aureus, V41): 0.25 µg/mL (≈ 0.322 µM)
- MIC [2]: 8 µg/mL (≈ 10.3 µM)
- MIC ([3]; Mycoplasmopsis synoviae): 50 µg/mL (≈ 64.4 µM)
- MIC ([4]; read-out: MIC): 25 µg/mL (≈ 32.2 µM)
- MIC ([5]; Streptococcus equinus, read-out: MIC): 1.56 µg/mL (≈ 2.01 µM)
- MIC ([6]; read-out: MIC): 0.5 µg/mL (≈ 0.644 µM)
- MIC ([7]; read-out: MIC): 0.12 µg/mL (≈ 0.155 µM)
- Number of Deaths/Number tested ([8]; 0.5 g/gal equivalent): 6/10
- Number of Deaths/Number tested ([8]; 1.0 g/gal equivalent): 0/10
- Number of Deaths/Number tested ([8]; 2.0 g/gal equivalent): 1/10
- MIC ([9]; read-out: MIC): 3.12 µg/mL (≈ 4.02 µM)
- MIC ([10]; Mycoplasma): 50 µg/mL (≈ 64.4 µM)
- MIC ([11]; Streptococcus pyogenes, C203): 0.25 µg/mL (≈ 0.322 µM)
- MIC ([12]; GROUP9960): 8 µg/mL (≈ 10.3 µM)
- ED50 ([13]; C203, sc, subcutaneous, read-out: ED50, Subcutaneous): 5 mg/kg
- ED50 ([13]; C203, oral, read-out: ED50, Oral): 11 mg/kg
- MIC ([14]; read-out: MIC): 0.12 µg/mL (≈ 0.155 µM)
- MIC ([15]; read-out: MIC): 16 µg/mL (≈ 20.6 µM)
- MIC ([16]; Staphylococcus aureus, S13E): 0.25 µg/mL (≈ 0.322 µM)
- MIC ([17]; Mycoplasmoides gallisepticum, read-out: MIC): 12.5 µg/mL (≈ 16.1 µM)
- MIC ([18]; Streptococcus pneumoniae): 2 µg/mL (≈ 2.58 µM)
- MIC ([19]; read-out: MIC): 16 µg/mL (≈ 20.6 µM)
- MIC ([20]; Mesomycoplasma hyopneumoniae, read-out: MIC): > 25 µg/mL
- MIC ([21]; Staphylococcus aureus, X1.1): 0.25 µg/mL (≈ 0.322 µM)
- MIC ([22]; read-out: MIC): 25 µg/mL (≈ 32.2 µM)
- MIC ([23]; read-out: MIC): > 50 µg/mL

SMILES: CCC1OC(=O)CC(O)C(C)C(OC2OC(C)C(O)C(N(C)C)C2O)C(CCOc2cc(Cl)cc(Cl)c2)CC(C)C(=O)C=CC(C)=CC1COC1OC(C)C(O)C(OC)C1OC (centres unmarked) [Compound 40, 20-DH-20-O-(3,5-Dichlorophenyl)desmycosin]
- MIC ([1]; Staphylococcus aureus V41, penicillin-resistant strain, agar dilution): 0.25 µg/mL (≈ 0.272 µM)
- MIC ([2]; Streptococcus Group D X66, agar dilution): 4 µg/mL (≈ 4.35 µM)
- MIC ([3]; Mycoplasma synoviae, broth-dilution microtiter): 0.19 µg/mL (≈ 0.207 µM)
- MIC [4]: 12.5 µg/mL (≈ 13.6 µM)
- MIC [5]: 3.12 µg/mL (≈ 3.4 µM)
- MIC [6]: 0.25 µg/mL (≈ 0.272 µM)
- MIC [7]: 0.25 µg/mL (≈ 0.272 µM)
- Number of Deaths/Number tested ([8]; 1.5 g/gal equivalent): 10/10
- MIC [9]: 0.39 µg/mL (≈ 0.424 µM)
- MIC ([10]; Mycoplasma hyorhinis, broth-dilution microtiter): 12.5 µg/mL (≈ 13.6 µM)
- MIC ([11]; Streptococcus pyogenes C203, agar dilution): 0.12 µg/mL (≈ 0.131 µM)
- MIC ([12]; Streptococcus Group 9960, agar dilution): 8 µg/mL (≈ 8.71 µM)
- ED50, Oral ([13]; oral): 31 mg/kg × 2
- ED50, Subcutaneous ([13]; subcutaneous): > 10 mg/kg × 2
- MIC [14]: 0.12 µg/mL (≈ 0.131 µM)
- MIC ([15]; agar dilution): 16 µg/mL (≈ 17.4 µM)
- MIC ([16]; Staphylococcus aureus S13E, agar dilution): 0.25 µg/mL (≈ 0.272 µM)
- MIC [17]: < 0.05 µg/mL
- MIC ([18]; Streptococcus pneumoniae Park I, agar dilution): 1 µg/mL (≈ 1.09 µM)
- MIC ([19]; agar dilution): 32 µg/mL (≈ 34.8 µM)
- MIC [20]: 12.5 µg/mL (≈ 13.6 µM)
- MIC ([21]; Staphylococcus aureus X1.1, agar dilution): 0.25 µg/mL (≈ 0.272 µM)
- MIC [22]: 12.5 µg/mL (≈ 13.6 µM)
- MIC [23]: 12.5 µg/mL (≈ 13.6 µM)
